Here are results for 3 compounds from patent US20200101014A1, “Stable Theranostic and Therapeutic Nanoemulsions Using Triphilic Semifluorinated Amphiphiles” (Wisconsin Alumni Research Foundation, priority 2017, published 2020).

For one data set, the system named is Zebrafish (Danio rerio). In words: In vivo developmental toxicity study, embryo-larval zebrafish model. On the set-up: species or system Zebrafish (Danio rerio) of the AB strain. Here is the method: In Vivo Developmental Toxicity Study
Due to the novel nature of the M2F8H18 amphiphile, there is no preceding toxicity data. Though some predictions can be made from previous work in the Mecozzi lab, a thorough study of developmental effects related to M2F8H18 was performed using an embryo-larval zebrafish model. This animal model was selected because zebrafish eggs remain transparent from fertilization until the tissues become dense as a mature adult. Several developmental endpoints can be simultaneously monitored providing valuable developmental toxicity data for new chemicals. Following short-term exposure, survival, and hatching, non-lethal malformations were monitored including curved body axis and pericardia edemas. Mortality rate was also monitored.
Zebrafish (Danio rerio) of the AB strain were obtained from our collaborator, Dr. Michael Taylor at the University of Madison-Wisconsin School of Pharmacy, where the fish were cultured until sexual maturation for crossing. The fish were maintained in a light/dark cycle of 14:10 hat 28.5° C. in egg water (0.03% Instant Ocean, Blacksburg, Va., USA). Zebrafish were fed with live brine shrimps (Artemia nauplii) twice a day. Embryos were obtained from healthy adult fish with a ratio of 1:2 for female to male. Six breeding groups were placed in separate spawning aquariums, equipped with a mesh bottom to prevent the eggs from being cannibalized. Crossing was induced in the morning when the light was turned on. One hour later, eggs free of macroscopically discernable symptoms of infection and disease were collected, rinsed with egg water and transferred into Petri dishes until chemical exposure.
The embryo-larvae toxicity assay was carried out according to previous studies in the Taylor and Mecozzi laboratories. Briefly, 8 fertilized eggs of 2 hpf (hours post-fertilization) stages were placed into each well of a 24-well plate and each filled with 600 μL egg water. Six concentrations (1 mM, 333 μM, 111 μM, 37 μM, 12.3 μM, and 4.1 μM) plus two controls were plated. The plate was covered and incubated at 28.5° C. in a light/dark cycle of 14:10 throughout the 96 hpf exposure period. The observations of zebrafish development were made directly in the well using a stereomicroscope (Nikon SMZ18) every 24 hr. Endpoints including mortality, spontaneous movement, hatching success, pericardial edema, and curved body axis, were selected to monitor the effects of M2F8H18. Embryos and larvae were considered dead when no heartbeat was observed. The number of hatched embryos and a cumulative mortality tally was recorded every 24 hr from 2 hpf. The number of larvae displaying pericardial edemas or curved body axes were also recorded every 24 hr from 2 hpf. […]

The subject of data set [1] is A549 non-small cell lung cancer cells. Conditions: read-out: Reported IC50 for the A549 cell line; cited from earlier work.
The conditions of data set [2]: cited from earlier work.

As for `O=C(O)C(F)(F)C(F)(F)C(F)(F)C(F)(F)C(F)(F)C(F)(F)C(F)(F)F` [PFOA, perfluorooctanoic acid], the Malformations result in the data set on Zebrafish (Danio rerio) (333 μM) is “curved body axis and mild pericardia edemas”; in the data set with Zebrafish (Danio rerio) (lower PFOA concentrations (111 μM and lower)), “No other malformations were noted”. Also, in the data set on Zebrafish (Danio rerio) (333 μM, 96 hpf), the “Mortality (fish)” value is recorded as 67%. Besides, the Mortality result in the data set on Zebrafish (Danio rerio) (1 mM, 96 hpf) is “mortality in all fish”.

Take `CC(=O)O[C@H]1C(=O)[C@@]2(C)[C@H]([C@H](OC(=O)c3ccccc3)[C@]3(O)C[C@H](OC(=O)[C@H](O)[C@@H](NC(=O)c4ccccc4)c4ccccc4)C(C)=C1C3(C)C)[C@]1(OC(C)=O)CO[C@@H]1C[C@@H]2O` [Paclitaxel, paclitaxel]: the IC50 in data set [1] is 4 nM.

Take `FC(F)(F)C(F)(F)C(F)(F)C(F)(F)C(F)(F)C(F)(F)C(F)(F)C(F)(F)Br` [perfluorooctyl bromide]: the “Solubility (in water)” value in data set [2] was 5 nM.
